Data: the supplement of paper PMC10307832

Legend:
Test in all cases: relative viability (nuclei count vs DMSO), 5 days (fraction); higher = more cells survive
201T = system: 201T
Method in brief: (§1)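 Relative viability is defined as nuclei in treated wells over nuclei in vehicle wells. Duplicate plates were run and medians reported. Lung cancer cell lines in 1536-well plates were dosed by pin tool one day after seeding, with one drug or with a fixed anchor-drug dose plus five library-drug doses (not always all listed) in √10 steps, and nuclei were counted after 5 days.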

ChaGo-K-1 = system: ChaGo-K-1
Method in brief: as §1

EPLC-272H = system: EPLC-272H
Method in brief: as §1

H3255 = system: H3255
Method in brief: as §1

HCC-78 = system: HCC-78
Method in brief: as §1

HCC-827 = system: HCC-827
Method in brief: as §1

LC-2-ad = system: LC-2-ad
Method in brief: as §1

LCLC-97TM1 = system: LCLC-97TM1
Method in brief: as §1

NCI-H1666 = system: NCI-H1666
Method in brief: as §1

NCI-H1915 = system: NCI-H1915
Method in brief: as §1

NCI-H2087 = system: NCI-H2087
Method in brief: as §1

NCI-H2126 = system: NCI-H2126
Method in brief: as §1

NCI-H2347 = system: NCI-H2347
Method in brief: as §1

NCI-H23 = system: NCI-H23
Method in brief: as §1

NCI-H2405 = system: NCI-H2405
Method in brief: as §1

NCI-H647 = system: NCI-H647
Method in brief: as §1

NCI-H650 = system: NCI-H650
Method in brief: as §1

PC-14 = system: PC-14
Method in brief: as §1

RERF-LC-KJ = system: RERF-LC-KJ
Method in brief: as §1

## CC(=O)O[C@@]12CO[C@@H]1C[C@H](O)[C@@]1(C)C(=O)[C@H](O)C3=C(C)[C@@H](OC(=O)[C@H](O)[C@@H](NC(=O)OC(C)(C)C)c4ccccc4)C[C@@](O)([C@@H](OC(=O)c4ccccc4)[C@H]21)C3(C)C [Docetaxel] + NC(=O)Nc1cc(-c2cccc(F)c2)sc1C(=O)N[C@H]1CCCNC1 [AZD7762] (partner 0.2 µM)
201T; first compound 0.0002 µM
  relative viability: 0.528
201T; first compound 0.000632 µM
  relative viability: 0.623
201T; first compound 0.002 µM
  relative viability: 0.481
201T; first compound 0.006325 µM
  relative viability: 0.388
201T; first compound 0.02 µM
  relative viability: 0.246
ChaGo-K-1; first compound 0.0002 µM
  relative viability: 0.817
ChaGo-K-1; first compound 0.000632 µM
  relative viability: 0.792
ChaGo-K-1; first compound 0.002 µM
  relative viability: 0.578
ChaGo-K-1; first compound 0.006325 µM
  relative viability: 0.27
ChaGo-K-1; first compound 0.02 µM
  relative viability: 0.161
EPLC-272H; first compound 0.000632 µM
  relative viability: 0.191
EPLC-272H; first compound 0.002 µM
  relative viability: 0.0912
EPLC-272H; first compound 0.006325 µM
  relative viability: 0.149
EPLC-272H; first compound 0.02 µM
  relative viability: 0.0556
H3255; first compound 0.0002 µM
  relative viability: 0.749
H3255; first compound 0.000632 µM
  relative viability: 0.859
H3255; first compound 0.002 µM
  relative viability: 0.446
H3255; first compound 0.006325 µM
  relative viability: 0.288
H3255; first compound 0.02 µM
  relative viability: 0.288
HCC-78; first compound 0.0002 µM
  relative viability: 0.479
HCC-78; first compound 0.000632 µM
  relative viability: 0.545
HCC-78; first compound 0.002 µM
  relative viability: 0.318
HCC-78; first compound 0.006325 µM
  relative viability: 0.394
HCC-78; first compound 0.02 µM
  relative viability: 0.364
HCC-827; first compound 0.0002 µM
  relative viability: 0.154
HCC-827; first compound 0.000632 µM
  relative viability: 0.239
HCC-827; first compound 0.002 µM
  relative viability: 0.165
HCC-827; first compound 0.006325 µM
  relative viability: 0.165
HCC-827; first compound 0.02 µM
  relative viability: 0.142
LC-2-ad; first compound 0.0002 µM
  relative viability: 0.8
LC-2-ad; first compound 0.000632 µM
  relative viability: 0.353
LC-2-ad; first compound 0.002 µM
  relative viability: 0.224
LC-2-ad; first compound 0.006325 µM
  relative viability: 0.274
LC-2-ad; first compound 0.02 µM
  relative viability: 0.178
LCLC-97TM1; first compound 0.0002 µM
  relative viability: 0.194
LCLC-97TM1; first compound 0.000632 µM
  relative viability: 0.221
LCLC-97TM1; first compound 0.002 µM
  relative viability: 0.078
LCLC-97TM1; first compound 0.006325 µM
  relative viability: 0.0825
LCLC-97TM1; first compound 0.02 µM
  relative viability: 0.0475
NCI-H1666; first compound 0.0002 µM
  relative viability: 0.692
NCI-H1666; first compound 0.000632 µM
  relative viability: 0.695
NCI-H1666; first compound 0.002 µM
  relative viability: 0.521
NCI-H1666; first compound 0.006325 µM
  relative viability: 0.465
NCI-H1666; first compound 0.02 µM
  relative viability: 0.359
NCI-H1915; first compound 0.0002 µM
  relative viability: 0.638
NCI-H1915; first compound 0.000632 µM
  relative viability: 0.703
NCI-H1915; first compound 0.002 µM
  relative viability: 0.527
NCI-H1915; first compound 0.006325 µM
  relative viability: 0.182
NCI-H1915; first compound 0.02 µM
  relative viability: 0.107
NCI-H2087; first compound 0.0002 µM
  relative viability: 1.23
NCI-H2087; first compound 0.000632 µM
  relative viability: 0.822
NCI-H2087; first compound 0.002 µM
  relative viability: 0.203
NCI-H2087; first compound 0.006325 µM
  relative viability: 0.236
NCI-H2087; first compound 0.02 µM
  relative viability: 0.108
NCI-H2126; first compound 0.0002 µM
  relative viability: 1.07
NCI-H2126; first compound 0.000632 µM
  relative viability: 1
NCI-H2126; first compound 0.002 µM
  relative viability: 0.571
NCI-H2126; first compound 0.006325 µM
  relative viability: 0.395
NCI-H2347; first compound 0.0002 µM
  relative viability: 0.697
NCI-H2347; first compound 0.000632 µM
  relative viability: 0.583
NCI-H2347; first compound 0.002 µM
  relative viability: 0.434
NCI-H2347; first compound 0.006325 µM
  relative viability: 0.395
NCI-H2347; first compound 0.02 µM
  relative viability: 0.268
NCI-H23; first compound 0.0002 µM
  relative viability: 0.241
NCI-H23; first compound 0.000632 µM
  relative viability: 0.246
NCI-H23; first compound 0.002 µM
  relative viability: 0.136
NCI-H23; first compound 0.006325 µM
  relative viability: 0.148
NCI-H23; first compound 0.02 µM
  relative viability: 0.103
NCI-H2405; first compound 0.0002 µM
  relative viability: 0.742
NCI-H2405; first compound 0.000632 µM
  relative viability: 0.582
NCI-H2405; first compound 0.002 µM
  relative viability: 0.46
NCI-H2405; first compound 0.006325 µM
  relative viability: 0.349
NCI-H2405; first compound 0.02 µM
  relative viability: 0.248
NCI-H647; first compound 0.0002 µM
  relative viability: 0.297
NCI-H647; first compound 0.000632 µM
  relative viability: 0.217
NCI-H647; first compound 0.002 µM
  relative viability: 0.0746
NCI-H647; first compound 0.006325 µM
  relative viability: 0.0816
NCI-H647; first compound 0.02 µM
  relative viability: 0.0266
NCI-H650; first compound 0.0002 µM
  relative viability: 0.946
NCI-H650; first compound 0.000632 µM
  relative viability: 0.485
NCI-H650; first compound 0.002 µM
  relative viability: 0.363
NCI-H650; first compound 0.006325 µM
  relative viability: 0.28
NCI-H650; first compound 0.02 µM
  relative viability: 0.239
PC-14; first compound 0.0002 µM
  relative viability: 0.322
PC-14; first compound 0.000632 µM
  relative viability: 0.337
PC-14; first compound 0.002 µM
  relative viability: 0.132
PC-14; first compound 0.006325 µM
  relative viability: 0.0705
PC-14; first compound 0.02 µM
  relative viability: 0.0363
RERF-LC-KJ; first compound 0.0002 µM
  relative viability: 0.5
RERF-LC-KJ; first compound 0.000632 µM
  relative viability: 1.01
RERF-LC-KJ; first compound 0.002 µM
  relative viability: 0.363
RERF-LC-KJ; first compound 0.006325 µM
  relative viability: 0.196
RERF-LC-KJ; first compound 0.02 µM
  relative viability: 0.128
